# In US9012441B2, “Therapeutic compounds” (Gilead Sciences, Inc., priority 2013, dated 2015):
# Like-named read-outs stand apart in the source and are kept apart here.
# Experiments:
# [1] = test system: HIV-IIIb; assay: Test A: Antiviral Assay in MT4 Cells; type: cell-based, HIV-1; conditions: Human immunodeficiency virus 1, MT4, 120 h, read-out: % Inh @ 2 uM (percent inhibition of virus-induced cell killing); 2 uM test compound; MT-4 cells infected with HIV-IIIb, 5 days, CellTiter-Glo
# Method: (§1) Test A: Antiviral Assay in MT4 Cells For the antiviral assay, 40 μL of 1× test concentration of 3-fold serially diluted compound in culture medium with 10% FBS was added to each well of a 384-well plate (10 concentrations) in quadruplicate. MT-4 cells were next mixed with HIV-IIIb at an m.o.i of 0.003 for 1 hour, after which time 35 μL of virus/cell mixture (2000 cells) was immediately added to each well containing 40 μL of diluted compound. The plates were then incubated at 37° C. for 5 days. After 5 days of incubation, 25 μl of 2× concentrated CellTiter-Glo™ Reagent (catalog #G7571, Promega Biosciences, Inc., Madison, Wis.) was added to each well containing MT-4 cells. Cell lysis was carried out by incubating at room temperature for 10 min and then chemiluminescence was read. […] Accordingly, the compounds disclosed herein may be useful for treating an HIV virus infection, treating AIDS or for delaying the onset of AIDS or ARC symptoms.
# [2] = Test B: Cytotoxicity Assay (uninfected MT-4 cells); type: cell-based; conditions: human, same protocol as Test A, read-out: MT4-CC50
# Method: as §1, with “For” for “Test A: Antiviral Assay in MT4 Cells For”, “Test B: Cytotoxicity Assay Compound cytotoxicity and” for “Accordingly,”, “corresponding CC50 values were determined using” for “compounds disclosed herein may be useful for treating an HIV virus infection, treating AIDS or for delaying”, “same protocol as described in the antiviral assay (Test A) except that uninfected cells were used.” for “onset of AIDS or ARC symptoms.”
SMILES,inhibition at 2 µM [1],CC50 at 5 days [2],also measured
"COc1ccc(N(C)C(=O)[C@@H]2Cc3cccc(c3)CSCc3[nH]c4ccccc4c3CC(=O)N2)cc1 [Example 15, (10S)—N-(4-methoxyphenyl)-N-methyl-12-oxo-9,10,11,12,13,18-hexahydro-1H-8,4-(metheno)[1,7]thiazacyclopentadecino[3,4-b]indole-10(3H)-carboxamide]",95.8%,> 51.4 µM,"ring closure, yield of all isomers (from COc1ccc(N(C)C(=O)[C@@H](N)Cc2cccc(CSCc3[nH]c4ccccc4c3CC(=O)O)c2)cc1, amide bond, DPPA, DIPEA, DMF, 3.01 mM, 25.0 °C, 16.0 h): 49.1%"
"COc1ccc(N(C)C(=O)[C@@H]2Cc3cccc(c3)SCc3[nH]c4ccccc4c3CC(=O)N2)cc1 [Example 18, (9S)—N-(4-methoxyphenyl)-N-methyl-11-oxo-8,9,10,11,12,17-hexahydro-1H-7,3-(metheno)[1,7]thiazacyclotetradecino[3,4-b]indole-9-carboxamide]",47.3%,> 53 µM,"ring closure, yield of all isomers (from COc1ccc(N(C)C(=O)[C@@H](N)Cc2cccc(SCc3[nH]c4ccccc4c3CC(=O)O)c2)cc1, amide bond, DPPA, DIPEA, DMF, 3.01 mM, 25.0 °C, 16.0 h): 65.5%"
CN(C(=O)[C@@H]1Cc2cccc(c2)CCCc2cc(C(F)(F)F)nn2CC(=O)N1)c1ccc(Cl)cc1 [Example 32],72.3%,22.5 µM,"ring closure, yield of all isomers (from C=CCc1cc(C(F)(F)F)nn1CC(=O)N[C@@H](Cc1cccc(Br)c1)C(=O)N(C)c1ccc(Cl)cc1, cc_pd bond, Pd(OAc)2 / 2-di-tert-butylphosphino-2'-(N,N-dimethylamino)biphenyl / triethylamine, DMF, 2.81 mM, 120.0 °C, 2 steps): 15%"
"COc1ccc(N(C)C(=O)[C@@H]2Cc3cccc(c3)CCCc3[nH]c4ccccc4c3CC(=O)N2)cc1 [Example 1, (4S)—N-(4-methoxyphenyl)-N-methyl-2-oxo-2,3,4,5,11,12,13,14-octahydro-1H-6,10-(metheno)azacyclopentadecino[5,4-b]indole-4-carboxamide]",103%,> 50.3 µM,"ring closure, yield of all isomers (from COc1ccc(N(C)C(=O)[C@@H](N)Cc2cccc(CCCc3[nH]c4ccccc4c3CC(=O)O)c2)cc1, amide bond, DPPA, DIPEA, DMF, 2.99 mM, 25.0 °C, 16.0 h): 23.9%"
"COc1ccc(N(C)C(=O)[C@@H]2Cc3cccc(c3)CSc3[nH]c4ccccc4c3CC(=O)N2)cc1 [Example 20, (9S)—N-(4-methoxyphenyl)-N-methyl-11-oxo-8,9,10,11,12,17-hexahydro-7,3-(metheno)[1,6]thiazacyclotetradecino[2,3-b]indole-9(2H)-carboxamide]",97.7%,45.2 µM,"ring closure, yield of all isomers (from COc1ccc(N(C)C(=O)[C@@H](N)Cc2cccc(CSc3[nH]c4ccccc4c3CC(=O)O)c2)cc1, amide bond, DPPA, DIPEA, DMF, 3.0 mM, 25.0 °C, 16.0 h): 65.8%"
"COc1ccc(N(C)C(=O)[C@@H]2Cc3cccc(c3)CCSCc3[nH]c4ccccc4c3CC(=O)N2)cc1 [Example 5, (11S)—N-(4-methoxyphenyl)-N-methyl-13-oxo-3,4,10,11,12,13,14,19-octahydro-1H-9,5-(metheno)[1,7]thiazacyclohexadecino[3,4-b]indole-11-carboxamide]",33.4%,49.5 µM,"ring closure, yield of all isomers (from COc1ccc(N(C)C(=O)[C@@H](N)Cc2cccc(CCSCc3[nH]c4ccccc4c3CC(=O)O)c2)cc1, amide bond, DPPA, DIPEA, DMF, 2.95 mM, 25.0 °C, 16.0 h): 65.8%"
COC(=O)[C@@H]1Cc2cccc(c2)C/C=C/c2[nH]c3ccc(OC)nc3c2CC(=O)N1,–,–,"ring closure, yield of all isomers (from C=CCc1cccc(C[C@H](NC(=O)Cc2c(Br)n(C(=O)OC(C)(C)C)c3ccc(OC)nc23)C(=O)OC)c1, cc_pd bond, Pd(OAc)2, DMF, 2.46 mM, 120.0 °C, 5.0 h): 33.3%"
COc1ccc(N(C)C(=O)[C@@H]2Cc3cccc(c3)/C=C/Cc3c(c4ccccc4n3C(=O)OC(C)(C)C)CC(=O)N2)cc1,–,–,"ring closure, yield of all isomers (from C=CCc1c(CC(=O)N[C@@H](Cc2cccc(I)c2)C(=O)N(C)c2ccc(OC)cc2)c2ccccc2n1C(=O)OC(C)(C)C, cc_pd bond, Pd2(dba)3, acetonitrile, 19.6 mM, 82.0 °C): 57.4%"
CN(C(=O)N1Cc2cc(F)cc(c2)/C=C\Cc2c(c3ccccc3n2C(=O)OC(C)(C)C)CC(=O)N1)c1ccc(Cl)cc1,–,–,"ring closure, yield of all isomers (from C=CCc1c(CC(=O)NN(Cc2cc(F)cc(Br)c2)C(=O)N(C)c2ccc(Cl)cc2)c2ccccc2n1C(=O)OC(C)(C)C, cc_pd bond, Pd(OAc)2, acetonitrile, 3.1 mM, 110.0 °C, 1.0 h): 23.6%"
